Consider four molecules from patent US20090149495A1, “COMPOUNDS” (priority 2005, published 2009).

In one experiment the target is T1, mGluR1 (Rattus norvegicus, UniProt P23385).
T1 construct: rat cerebellar membrane preaparation was used; from tissue; host or cells: rat cerebellum (membrane preparation)
The experiment in a line: MGluR1 receptor binding test ([3H]R214127 displacement, rat cerebellar membrane). As to conditions: rat cerebellar membranes; radioligand [3H]R214127 3 nM; read-out: mGlu1 Ki. How it is done: MGluR1 receptor binding tests were performed according to modified method of Lavreysen et al. (Mol.Pharm., 2003, 63, 1082). Based on the high homology between the human and rat mGluR1 receptors, rat cerebellar membrane preaparation was used to determine the binding characteristics of reference compounds and novel compounds to the rat mGluR1. As radioligand [3H]R214127 (3 nM) was used and the nonspecific binding was determined in the presence of 1 μM of R214127.
IC-50 values were determined from displacement curves by nonlinear regression analysis and were converted by equation method of Cheng and Prusoff (Biochem. Pharmacol., 1973, 22, 3099) to Ki values.

For a further experiment, the target named is mGluR5. The experiment in a line: MGluR5 receptor binding test ([3H]-M-MPEP displacement). Details: species or system rat or human. The following applies: radioligand [3H]-M-MPEP 2 nM; table does not say rat cortical membranes or hmGluR5a cells; read-out: mGlu5 Ki. How it is done:
MGluR5 receptor binding was determined according to Gasparini et.al. (Bioorg. Med. Chem. Lett. 2000, 12:407-409) with modifications. Rat cerebro-cortical membrane preparation was used to determine the binding characteristics of reference compounds and novel compounds to the rat mGluR5. The A18 cell line expressing hmGluR5a (purchased from Euroscreen) was used to determine binding characteristics of the chemical compounds to the human mGluR5a receptor. As radioligand [3H]-M-MPEP (2 nM) was used. The nonspecific binding was determined in the presence of 10 μM M-MPEP.

T1 sequence (P23385 19-1199): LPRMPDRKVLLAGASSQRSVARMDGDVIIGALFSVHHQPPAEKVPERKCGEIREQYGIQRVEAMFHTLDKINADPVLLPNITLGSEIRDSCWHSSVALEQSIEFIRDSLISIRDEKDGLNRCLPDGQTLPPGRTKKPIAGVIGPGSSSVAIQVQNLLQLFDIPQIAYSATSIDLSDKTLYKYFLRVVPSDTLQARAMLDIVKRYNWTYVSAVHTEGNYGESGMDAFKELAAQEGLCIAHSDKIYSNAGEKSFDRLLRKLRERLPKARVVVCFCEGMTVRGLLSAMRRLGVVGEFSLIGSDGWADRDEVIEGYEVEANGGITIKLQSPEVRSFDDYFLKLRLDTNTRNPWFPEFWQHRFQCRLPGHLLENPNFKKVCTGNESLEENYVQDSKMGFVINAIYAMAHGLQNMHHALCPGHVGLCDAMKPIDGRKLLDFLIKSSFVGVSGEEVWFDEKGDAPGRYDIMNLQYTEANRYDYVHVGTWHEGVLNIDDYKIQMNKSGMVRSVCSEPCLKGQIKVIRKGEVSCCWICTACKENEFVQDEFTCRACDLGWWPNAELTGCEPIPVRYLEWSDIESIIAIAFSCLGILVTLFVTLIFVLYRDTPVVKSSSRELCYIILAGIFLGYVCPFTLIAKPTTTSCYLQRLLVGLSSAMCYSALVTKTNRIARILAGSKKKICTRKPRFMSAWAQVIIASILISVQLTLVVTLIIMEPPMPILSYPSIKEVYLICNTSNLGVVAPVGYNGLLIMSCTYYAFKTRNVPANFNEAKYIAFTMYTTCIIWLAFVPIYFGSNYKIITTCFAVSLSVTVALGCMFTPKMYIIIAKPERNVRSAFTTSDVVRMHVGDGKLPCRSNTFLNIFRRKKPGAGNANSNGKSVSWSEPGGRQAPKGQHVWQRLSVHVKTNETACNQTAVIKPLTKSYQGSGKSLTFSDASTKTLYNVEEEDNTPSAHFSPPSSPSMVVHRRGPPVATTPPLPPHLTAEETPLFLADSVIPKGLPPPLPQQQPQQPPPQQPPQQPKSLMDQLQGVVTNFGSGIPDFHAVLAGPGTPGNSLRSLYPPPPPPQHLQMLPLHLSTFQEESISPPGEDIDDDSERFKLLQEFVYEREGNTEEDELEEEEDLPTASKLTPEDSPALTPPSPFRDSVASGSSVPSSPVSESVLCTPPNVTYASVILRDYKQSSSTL

Turning to `O=S(=O)(c1ccc(Cl)cc1)c1sc2nc(O)ccc2c1-c1ccc(Cl)cc1` [Compound 1, 2-(4-Chloro-Benzenesulfonyl)-3-(4-Chloro-Phenyl)-7H-Thieno[2,3-b]Pyridin-6-One], the Ki (commonly the dissociation constant of the complex between target and ligand, obtained from inhibition or displacement) at mGluR1 is greater than 500 nM; on mGluR5, less than 500 nM.
On the same counts, the results for `N#Cc1cccc(S(=O)(=O)c2sc3nc(O)ccc3c2-c2ccc(Cl)cc2)c1` [Compound 2, 3-[3-(4-chloro-phenyl)-6-oxo-6,7-dihydro-thieno[2,3-b]pyridin-2-sulfonyl]-benzonitrile] are less than 500 nM and less than 500 nM.
The matching figures for `O=C(OCc1ccc(F)cc1)c1sc2[nH]c(=O)ccc2c1-c1ccc(Cl)cc1` [Compound 3, 3-(4-chloro-phenyl)-6-oxo-6,7-dihydro-thieno[2,3-b]pyridine-2-carboxylic acid 4-fluoro-benzyl ester]: less than 500 nM and less than 500 nM.
Consider `Cc1cccc(S(=O)(=O)c2sc3[nH]c(=O)ccc3c2-c2ccc(Cl)cc2)c1` [Compound 4, 3-(4-chloro-phenyl)-2-(toluene-3-sulfonyl)-7H-thieno[2,3-b]pyridin-6-one], for which, at mGluR5, the Ki is greater than 500 nM.
